These results are taken from patent publication US9598383B2, “Reactive oxygen species-based prodrugs” (The Regents of the University of California, priority 2013, dated 2017).

A short description of data set [1]: H2O2-triggered deprotection of model compounds (conversion to acid), analytical HPLC. Format: physicochemical. As to conditions: for percent conversion to acid: incubation at RT; for deprotection, conversion to the acid: excess of H2O2 (27 equiv) in buffer, after 4 h of incubation. On the procedure:
To be effective prodrugs must have good water solubility and be rapidly converted to the active drug under the desired stimulus. These two aspects were evaluated first in model systems. […] An authentic HPLC trace of each was obtained and was then compared to a trace obtained after 1 h and 4 h of incubation. […] The stability of each compound was tested at physiological pH (100 mM TRIS-HCl, pH 7.2) as well as in the presence of glutathione (9 equiv).
Injections consisted of 100 μL, of a 50 μM.

Data set [2] can be described thus: Stability of model compounds in simulated physiological conditions, analytical HPLC. The class given is physicochemical. Conditions: for stability: HEPES, RT, 24 h; for stability at physiological pH: 100 mM TRIS-HCl; for stability in the presence of glutathione: glutathione (9 equiv).
Data set [3] is described as follows: Hydrolytic stability of prodrugs in buffer and with biologically relevant nucleophiles, analytical HPLC.
Protocol: Initially, an authentic HPLC trace was obtained of proIBU and proMMPi, and a second trace was obtained after incubating in buffer (100 mM TRIS-HCl, pH 7.4) for 24 h at 37° C. Each prodrug was incubated in the same conditions, with the addition of 20 equivalents of lysine, serine and glutathione, all in distinct trials.
All compounds were initially dissolved in DMSO and further diluted with specified buffer. Injections consisted of 100 μl, of a 1 mM solution.
The subject of data set [4] is COX-1. Put plainly: COX inhibition, commercially available fluorescent assay (COX-1). The class given is biochemical. As to conditions: COX-1 isoform. The procedure:
The efficacy of the prodrug to inhibit its target was also evaluated. For proIBU a commercially available fluorescent assay was utilized. ProIBU was tested against both isoforms of the COX enzyme. […] Table 1 and FIG. 3.

Bounds are passed on as bounds.

Take `O=C1OCCN1C(=O)c1ccccc1` [Compound 1, 3-benzoyloxazolidin-2-one]: the “percent conversion to acid” value in data set [1] (1 h) is 14.6%; in data set [1] (4 h), 25.6%. In addition, the stability in data set [2] (pH 7.2 + GSH (9 equiv)), in data set [2] (pH 7.2) and in data set [2] (pH 8.0) was greater than 99% each time.

On to `O=C1SCCN1C(=O)c1ccccc1` [Compound 2, 3-benzoylthiazolidin-2-one], for which the “percent conversion to acid” value in data set [1] (1 h) is on record as 13.6%; in data set [1] (4 h), 37.8%. In addition, the stability is on record as greater than 99% in data set [2] (pH 7.2 + GSH (9 equiv)), 88.6% in data set [2] (pH 7.2) and 82.5% in data set [2] (pH 8.0).

Regarding `O=C(c1ccccc1)N1CCOC1=S` [Compound 3, Phenyl(2-thioxooxazolidin-3-yl)methanone], the “deprotection, conversion to the acid” value in data set [1] is reported as “full deprotection”. Further, the “percent conversion to acid” value in data set [1] (1 h) is recorded as 44.7%; in data set [1] (4 h) it was greater than 99%. Moreover, the “stability at physiological pH” value in data set [2] (pH 7.2) was “poorer stability”. Besides, the stability is reported as 59.5% in data set [2] (pH 7.2 + GSH (9 equiv)), 95.5% in data set [2] (pH 7.2) and 41.2% in data set [2] (pH 8.0). In addition, the “stability in the presence of glutathione” value in data set [2] is “poorer stability”.

For `O=C(c1ccccc1)N1CCSC1=S` [Compound 4, Phenyl(2-thioxothiazolidin-3-yl)methanone], the “deprotection, conversion to the acid” value in data set [1] is listed as “full deprotection”. Moreover, the “percent conversion to acid” value in data set [1] (1 h) is reported as 48.5%; in data set [1] (4 h), greater than 99%. For the same compound, the “stability at physiological pH” value in data set [2] (pH 7.2) was “poorer stability”. In addition, the stability in data set [2] (pH 7.2 + GSH (9 equiv)) is 77.6%; in data set [2] (pH 7.2), 57.0%; in data set [2] (pH 8.0) it was 54.8%. The “stability in the presence of glutathione” value in data set [2] is reported as “poorer stability”.

For the compound `O=C(Cc1ccccc1)N1CCOC1=O` [Compound 5, 3-(2-phenylacetyl)oxazolidin-2-one], the “percent conversion to acid” value in data set [1] (1 h) and in data set [1] (4 h) was less than 1% throughout. For the same compound, the stability in data set [2] (pH 7.2 + GSH (9 equiv)) was 86.3%; in data set [2] (pH 7.2) it was greater than 99%; in data set [2] (pH 8.0), 94.5%.

As for `O=C(Cc1ccccc1)N1CCSC1=O` [Compound 6, 3-(2-phenylacetyl)thiazolidin-2-one], the “percent conversion to acid” value in data set [1] (1 h) came out at 23.3%; in data set [1] (4 h), 67.8%. The stability in data set [2] (pH 7.2 + GSH (9 equiv)), in data set [2] (pH 7.2) and in data set [2] (pH 8.0) was greater than 99% in each case.

On to `O=C(Cc1ccccc1)N1CCOC1=S` [Compound 7, 2-phenyl-1-(2-thioxooxazolidin-3-yl)ethan-1-one], for which the “deprotection, conversion to the acid” value in data set [1] was “full deprotection”. Also, the “percent conversion to acid” value in data set [1] (1 h) is reported as 81.6%; in data set [1] (4 h) it was greater than 99%. The “stability at physiological pH” value in data set [2] (pH 7.2) is given as “poorer stability”. For the same compound, the stability is 45.7% in data set [2] (pH 7.2 + GSH (9 equiv)), 54.6% in data set [2] (pH 7.2) and 24.4% in data set [2] (pH 8.0). Also, in data set [2], the “stability in the presence of glutathione” value was “poorer stability”.

As to `O=C(Cc1ccccc1)N1CCSC1=S` [Compound 8, 2-phenyl-1-(2-thioxothiazolidin-3-yl)ethan-1-one], in data set [1], the “deprotection, conversion to the acid” value is recorded as “full deprotection”. In addition, the “percent conversion to acid” value in data set [1] (1 h) is given as 87.6%; in data set [1] (4 h), greater than 99%. For the same compound, the “stability at physiological pH” value in data set [2] (pH 7.2) was “poorer stability”. Further, the stability in data set [2] (pH 7.2 + GSH (9 equiv)) was 39.5%; in data set [2] (pH 7.2), 32.5%; in data set [2] (pH 8.0), less than 1%. For the same compound, in data set [2], the “stability in the presence of glutathione” value is listed as “poorer stability”.

On to `CC(C)Cc1ccc(C(C)C(=O)N2CCSC2=O)cc1` (stereo not drawn) [proIBU, 3-(2-(4-isobutylphenyl)propanoyl)thiazolidin-2-one], for which the hydrolytic stability is recorded as greater than 99% in data set [3] (100 mM TRIS-HCl, pH 7.4, 24 h at 37° C., 20 equivalents of glutathione); greater than 99% in data set [3] (100 mM TRIS-HCl, pH 7.4, 24 h at 37° C., 20 equivalents of lysine); greater than 99% in data set [3] (100 mM TRIS-HCl, pH 7.4, 24 h at 37° C., 20 equivalents of serine); greater than 99% in data set [3] (buffer (100 mM TRIS-HCl, pH 7.4), 24 h at 37° C.). Further, the “inhibition of COX enzyme” value in data set [4] is listed as “little to no inhibition”.
